Laboratory results published in PubChem BioAssay (NCI).
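Briefly, cells in 96-well plates were exposed to five compound concentrations for 48 h, and endpoints were estimated by linear interpolation. TGI: total growth inhibition.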

Key:
Test in all cases: NCI tumour cell line growth inhibition, 48 h
[1] = tested on: BT-549 breast
[2] = tested on: KM12 colon
[3] = tested on: MALME-3M melanoma
[4] = tested on: 786-0 renal
[5] = tested on: OVCAR-8 ovarian
[6] = tested on: SNB-19 CNS
[7] = tested on: MDA-MB-435
[8] = tested on: OVCAR-5 ovarian
[9] = tested on: ACHN renal
[10] = tested on: DU-145 prostate
[11] = tested on: U251 CNS
[12] = tested on: SR leukemia
[13] = tested on: IGROV1 ovarian
[14] = tested on: COLO 205 colon
[15] = tested on: SW-620 colon
[16] = tested on: SK-MEL-28 melanoma
[17] = tested on: NCI-H460 lung
[18] = tested on: M14 melanoma
[19] = tested on: MDA-N
[20] = tested on: SNB-75 CNS
[21] = tested on: CAKI-1 renal
[22] = tested on: MCF7 breast
[23] = tested on: K-562 leukemia
[24] = tested on: HCC-2998 colon
[25] = tested on: SF-295 CNS
[26] = tested on: SK-MEL-5 melanoma
[27] = tested on: TK-10 renal
[28] = tested on: PC-3 prostate
[29] = tested on: UACC-257 melanoma
[30] = tested on: HOP-62 NSCLC
[31] = tested on: SN12C renal
[32] = tested on: HCT-15 colon
[33] = tested on: MOLT-4 leukemia
[34] = tested on: NCI/ADR-RES ovarian
[35] = tested on: LOX IMVI melanoma
[36] = tested on: UACC-62 melanoma
[37] = tested on: EKVX NSCLC
[38] = tested on: OVCAR-4 ovarian
[39] = tested on: NCI-H23 lung
[40] = tested on: NCI-H226 lung
[41] = tested on: HS 578T breast
[42] = tested on: A498 renal
[43] = tested on: SF-539 CNS
[44] = tested on: HL-60(TB) leukemia
[45] = tested on: SK-OV-3 ovarian
[46] = tested on: RXF 393 renal
[47] = tested on: OVCAR-3 ovarian
[48] = tested on: CCRF-CEM leukemia
[49] = tested on: HT29 colon
[50] = tested on: A549 NSCLC
[51] = tested on: HCT-116 colon
[52] = tested on: UO-31 renal
[53] = tested on: MDA-MB-231 breast
[54] = tested on: RPMI-8226 leukemia
[55] = tested on: SF-268 CNS
[56] = tested on: SK-MEL-2 melanoma
[57] = tested on: T-47D breast
[58] = tested on: NCI-H522 lung
[59] = tested on: HOP-92 NSCLC

SMILES: CC(=O)NC1(C)CCC(C(C)(C)NC(C)=O)CC1 (stereo not drawn)
- TGI [1]: > 100 µM
- TGI [2]: > 100 µM
- TGI [3]: > 100 µM
- TGI [4]: > 100 µM
- TGI [5]: > 100 µM
- TGI [6]: > 100 µM
- TGI [7]: > 100 µM
- TGI [8]: > 100 µM
- TGI [9]: > 100 µM
- TGI [10]: > 100 µM
- TGI [11]: > 100 µM
- TGI [12]: > 100 µM
- TGI [13]: > 100 µM
- TGI [14]: > 100 µM
- TGI [15]: > 100 µM
- TGI [16]: > 100 µM
- TGI [17]: > 100 µM
- TGI [18]: > 100 µM
- TGI [19]: > 100 µM
- TGI [20]: > 100 µM
- TGI [21]: > 100 µM
- TGI [22]: > 100 µM
- TGI [23]: > 100 µM
- TGI [24]: > 100 µM
- TGI [25]: > 100 µM
- TGI [26]: > 100 µM
- TGI [27]: > 100 µM
- TGI [28]: > 100 µM
- TGI [29]: > 100 µM
- TGI [30]: > 100 µM
- TGI [31]: > 100 µM
- TGI [32]: > 100 µM
- TGI [33]: > 100 µM
- TGI [34]: > 100 µM
- TGI [35]: > 100 µM
- TGI [36]: > 100 µM
- TGI [37]: > 100 µM
- TGI [38]: > 100 µM
- TGI [39]: > 100 µM
- TGI [40]: > 100 µM
- TGI [41]: > 100 µM
- TGI [42]: > 100 µM
- TGI [43]: > 100 µM
- TGI [44]: > 100 µM
- TGI [45]: > 100 µM
- TGI [46]: > 100 µM
- TGI [47]: > 100 µM
- TGI [48]: > 100 µM
- TGI [49]: > 100 µM
- TGI [50]: > 100 µM
- TGI [51]: > 100 µM
- TGI [52]: > 100 µM
- TGI [53]: > 100 µM
- TGI [54]: > 100 µM
- TGI [55]: > 100 µM

SMILES: COc1ccc(-c2oc3ccc(C)cc3c(=O)c2O)cc1
- TGI [1]: > 100 µM
- TGI [2]: > 100 µM
- TGI [3]: > 100 µM
- TGI [4]: > 100 µM
- TGI [5]: 79.3 µM
- TGI [6]: > 100 µM
- TGI [7]: > 100 µM
- TGI [8]: > 100 µM
- TGI [9]: > 100 µM
- TGI [10]: > 100 µM
- TGI [11]: > 100 µM
- TGI [13]: > 100 µM
- TGI [14]: > 100 µM
- TGI [15]: > 100 µM
- TGI [16]: > 100 µM
- TGI [18]: > 100 µM
- TGI [19]: > 100 µM
- TGI [20]: > 100 µM
- TGI [21]: > 100 µM
- TGI [22]: > 100 µM
- TGI [24]: > 100 µM
- TGI [25]: > 100 µM
- TGI [26]: > 100 µM
- TGI [27]: > 100 µM
- TGI [28]: > 100 µM
- TGI [29]: > 100 µM
- TGI [30]: > 100 µM
- TGI [31]: > 100 µM
- TGI [56]: > 100 µM
- TGI [32]: > 100 µM
- TGI [33]: > 100 µM
- TGI [34]: > 100 µM
- TGI [35]: > 100 µM
- TGI [36]: > 100 µM
- TGI [37]: > 100 µM
- TGI [38]: > 100 µM
- TGI [39]: > 100 µM
- TGI [40]: > 100 µM
- TGI [57]: > 100 µM
- TGI [41]: > 100 µM
- TGI [42]: > 100 µM
- TGI [43]: > 100 µM
- TGI [44]: > 100 µM
- TGI [45]: > 100 µM
- TGI [46]: > 100 µM
- TGI [47]: > 100 µM
- TGI [58]: > 100 µM
- TGI [48]: > 100 µM
- TGI [49]: > 100 µM
- TGI [50]: > 100 µM
- TGI [51]: > 100 µM
- TGI [59]: > 100 µM
- TGI [52]: > 100 µM
- TGI [53]: > 100 µM
- TGI [54]: > 100 µM
- TGI [55]: > 100 µM

SMILES: CSc1nc2ccccc2c(=O)n1/N=C1\C(=O)N(CN2CCOCC2)c2ccc(Cl)cc21
- TGI [1]: 93.8 µM
- TGI [2]: > 100 µM
- TGI [3]: > 100 µM
- TGI [4]: > 100 µM
- TGI [5]: > 100 µM
- TGI [6]: > 100 µM
- TGI [7]: > 100 µM
- TGI [8]: > 100 µM
- TGI [9]: > 100 µM
- TGI [10]: 63.6 µM
- TGI [11]: > 100 µM
- TGI [13]: > 100 µM
- TGI [14]: 36.6 µM
- TGI [15]: > 100 µM
- TGI [16]: > 100 µM
- TGI [17]: 43.4 µM
- TGI [18]: > 100 µM
- TGI [19]: > 100 µM
- TGI [20]: > 100 µM
- TGI [21]: > 100 µM
- TGI [22]: > 100 µM
- TGI [23]: > 100 µM
- TGI [25]: > 100 µM
- TGI [26]: > 100 µM
- TGI [27]: 71.4 µM
- TGI [28]: > 100 µM
- TGI [29]: 51.2 µM
- TGI [30]: > 100 µM
- TGI [31]: > 100 µM
- TGI [56]: 51.6 µM
- TGI [32]: > 100 µM
- TGI [33]: 42.8 µM
- TGI [34]: > 100 µM
- TGI [35]: 33.3 µM
- TGI [36]: 61.3 µM
- TGI [37]: 64.8 µM
- TGI [38]: > 100 µM
- TGI [39]: > 100 µM
- TGI [40]: > 100 µM
- TGI [57]: > 100 µM
- TGI [41]: > 100 µM
- TGI [42]: > 100 µM
- TGI [43]: 75.6 µM
- TGI [44]: 64 µM
- TGI [45]: > 100 µM
- TGI [46]: 44.8 µM
- TGI [47]: > 100 µM
- TGI [58]: 89.8 µM
- TGI [48]: > 100 µM
- TGI [49]: > 100 µM
- TGI [50]: > 100 µM
- TGI [51]: > 100 µM
- TGI [59]: > 100 µM
- TGI [52]: > 100 µM
- TGI [53]: > 100 µM
- TGI [55]: > 100 µM

SMILES: Oc1nc(N/N=C/c2c[nH]c3ccccc23)[nH]c1/C=C1\C=Nc2ccccc21
- TGI [1]: 60.3 µM
- TGI [2]: 44.8 µM
- TGI [3]: 33.8 µM
- TGI [4]: 37 µM
- TGI [5]: 29.2 µM
- TGI [6]: > 100 µM
- TGI [7]: 62.4 µM
- TGI [8]: > 100 µM
- TGI [9]: 49.1 µM
- TGI [10]: > 100 µM
- TGI [11]: 32.3 µM
- TGI [13]: 41.2 µM
- TGI [14]: 26.7 µM
- TGI [15]: 35.8 µM
- TGI [16]: 54.1 µM
- TGI [17]: > 100 µM
- TGI [18]: 75.9 µM
- TGI [19]: > 100 µM
- TGI [20]: 78 µM
- TGI [21]: > 100 µM
- TGI [22]: 29.5 µM
- TGI [23]: 27.8 µM
- TGI [25]: 40.9 µM
- TGI [26]: 38.1 µM
- TGI [27]: > 100 µM
- TGI [28]: 32 µM
- TGI [29]: 79.4 µM
- TGI [30]: 80.9 µM
- TGI [31]: > 100 µM
- TGI [56]: 36.5 µM
- TGI [32]: 61 µM
- TGI [33]: 22.3 µM
- TGI [34]: 84.5 µM
- TGI [35]: 31.1 µM
- TGI [36]: 37.7 µM
- TGI [37]: 89.6 µM
- TGI [38]: 86.1 µM
- TGI [39]: 38.5 µM
- TGI [40]: 34.4 µM
- TGI [57]: 36.5 µM
- TGI [41]: 40.6 µM
- TGI [42]: 27.8 µM
- TGI [43]: 48.4 µM
- TGI [44]: 32.9 µM
- TGI [45]: > 100 µM
- TGI [46]: > 100 µM
- TGI [47]: 29.6 µM
- TGI [58]: 24.2 µM
- TGI [48]: 25.3 µM
- TGI [49]: 47.5 µM
- TGI [50]: 42.3 µM
- TGI [51]: 36.7 µM
- TGI [59]: 36.9 µM
- TGI [53]: 43.2 µM
- TGI [54]: 25.5 µM
- TGI [55]: 43.1 µM
